The text below walks through data of patent publication US10626094B2 (La Jolla Institute of Allergy & Immunology, priority 2014, dated 2020).

The target in this experiment is LMPTP-A (Low Molecular Weight Protein Tyrosine Phosphatase-A) enzyme (Homo sapiens (Human), UniProt P24666). Kind of experiment: LMPTP primary screening / LMPTP (OMFP) enzyme inhibition assay, fluorescence intensity. The class given is biochemical. To be noted: LMPTP-A, OMFP substrate, method of Example 2; read-out: IC50. How it is done: This assay attempts to identify inhibitors of the LMPTP-A (Low Molecular Weight Protein Tyrosine Phosphatase-A) enzyme. It is run in 1536-well format and is measured via fluorescence intensity.
Sequence of LMPTP-A (Low Molecular Weight Protein Tyrosine Phosphatase-A) enzyme (P24666 whole entry): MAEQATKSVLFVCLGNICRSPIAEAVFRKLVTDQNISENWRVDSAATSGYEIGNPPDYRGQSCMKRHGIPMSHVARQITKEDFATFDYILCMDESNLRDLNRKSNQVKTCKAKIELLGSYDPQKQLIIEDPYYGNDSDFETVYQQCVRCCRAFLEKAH
A listing of materials is provided: • Item, source, catalog no. • LMPTP-A Enzyme Stock Solution (4.22 mg/ml or 206.8 μM), SBMRI Protein Facility, • N/A • OMFP, Sigma, M2629-100MG • Bis-Tris pH 6.0, Fisher Sci, BP301-100 • Triton-X 100, Sigma, T9284 • DTT, Sigma, D9779 • Mol. Grade Water, Mediatech, Inc., 46-000-CM • 1536-well black High base opaque bottom plate, Nexus Biosystems, 00019120
Final assay conditions are: • 0.625 nM LMPTP-A Enzyme • 400 μM OMFP • 50 mM Bis-Tris pH 6.0 • 1 mM DTT • 0.01% Triton-X 100 • 20 μM test compound • 3% DMSO (2% from substrate and 1% from compounds) • 6 μL reaction volume • 50 minutes incubation at room temp
Assay Procedure • 1. Prepare Reagents as described in section F. Recipe. • 2. Using LabCyte Echo, transfer 60 nL from 2 mM test compound source plate into assay plate Col. 5-48 (final concentration of test compounds is 20 μM). 60 nL of DMSO should be transferred to col. 1-4 for positive and negative control wells. • 3. Spin plates at 1000 rpm for 1 minute in centrifuge. • 4. […] Using the Bioraptr, add 3 μL/well of enzyme solution to col. 3-48. • 6. Using the Bioraptr, add 3 μL/well of substrate solution to col. 1-48. • 7. Spin plates at 1000 rpm for 1 minute in centrifuge. • 8. Incubate plates in the dark at room temperature for 50 minutes. • 9. Read plates on PerkinElmer Viewlux using a FI protocol.
Take `COc1ccc(-c2cc(Nc3cccc(C)n3)c3ccccc3n2)cc1` [Compound G67, [2-(4-methoxyphenyl)(4-quinolyl)](6-methyl(2-pyridyl))amine]: the IC50 (in general, the concentration at which inhibition is half-maximal) was 0.801 to 5 µM.

As for `COc1ccc(-c2cc(Nc3ccc4ccccc4n3)c3ccccc3n2)cc1` [Compound G68, [2-(4-methoxyphenyl)(4-quinolyl)]-2-quinolylamine], the IC50 fell in the range of 0.801 to 5 µM.

With `COc1ccc(-c2cc(Nc3cccc4cccnc34)c3ccccc3n2)cc1` [Compound G69], the IC50 is above 5 µM.

Consider `COc1ccc(-c2cc(Nc3ccncn3)c3ccccc3n2)cc1` [Compound G70, [2-(4-methoxyphenyl)(4-quinolyl)]pyrimidin-4-ylamine], for which the IC50 was in the range of 0.801 to 5 µM.

Take `COc1ccc(-c2cc(Nc3ccnnc3)c3ccccc3n2)cc1` [Compound G71, [2-(4-methoxyphenyl)(4-quinolyl)]pyridazin-4-ylamine]: the IC50 was 0.801 to 5 µM.

Regarding `COc1ccc(-c2cc(Nc3ncccn3)c3ccccc3n2)cc1` [Compound G72, [2-(4-methoxyphenyl)(4-quinolyl)]pyrimidin-2-ylamine], the IC50 was in the range of 0.801 to 5 µM.

For the molecule `COc1ccc(-c2cc(Nc3cncc(C)n3)c3ccccc3n2)cc1` [Compound G73, [2-(4-methoxyphenyl)(4-quinolyl)](6-methylpyrazin-2-yl)amine], the IC50 lay within 0.801 to 5 µM.

As for `COc1ccc(-c2cc(NCc3ccc(Cl)cc3)c3ccccc3n2)cc1` [Compound G74, [(4-chlorophenyl)methyl][2-(4-methoxyphenyl)(4-quinolyl)]amine], the IC50 lay in the range of 0.801 to 5 µM.

As for `COc1ccc(-c2cc(NCc3ccccc3)c3ccccc3n2)cc1` [Compound G75, [2-(4-methoxyphenyl)(4-quinolyl)]benzylamine], the IC50 was in the range of 0.801 to 5 µM.

As for `COc1ccc(-c2cc(NC(C)c3ccccc3)c3ccccc3n2)cc1` (stereo not shown) [Compound G76], the IC50 was in the range of 0.801 to 5 µM.

In the case of `COc1ccc(-c2cc(NCc3ccccc3OC)c3ccccc3n2)cc1` [Compound G77, [2-(4-methoxyphenyl)(4-quinolyl)][(2-methoxyphenyl)methyl]amine], the IC50 was 0.801 to 5 µM.

Take `COc1ccc(-c2cc(NCc3cccc(OC)c3)c3ccccc3n2)cc1` [Compound G78, [2-(4-methoxyphenyl)(4-quinolyl)][(3-methoxyphenyl)methyl]amine]: the IC50 is 0.801 to 5 µM.

As for `COc1ccc(CNc2cc(-c3ccc(OC)cc3)nc3ccccc23)cc1` [Compound G79, [2-(4-methoxyphenyl)(4-quinolyl)][(4-methoxyphenyl)methyl]amine], the IC50 was 0.801 to 5 µM.

Consider `COc1ccc(-c2cc(NCc3ccccc3C(F)(F)F)c3ccccc3n2)cc1` [Compound G80, [2-(4-methoxyphenyl)(4-quinolyl)]{[2-(trifluoromethyl)phenyl]methyl}amine], for which the IC50 lay within 0.801 to 5 µM.

As to `COc1ccc(-c2cc(NCc3ccc(C(F)(F)F)cc3)c3ccccc3n2)cc1` [Compound G81, [2-(4-methoxyphenyl)(4-quinolyl)]{[4-(trifluoromethyl)phenyl]methyl}amine], the IC50 lay in the range of 0.801 to 5 µM.

Turning to `COc1ccc(-c2cc(NCc3cccc(C#N)c3)c3ccccc3n2)cc1` [Compound G82, 3-({[2-(4-methoxyphenyl)-4-quinolyl]amino}methyl)benzenecarbonitrile], the IC50 lay within 0.801 to 5 µM.

Take `COc1ccc(-c2cc(NCCc3ccccc3)c3ccccc3n2)cc1` [Compound G83, [2-(4-methoxyphenyl)(4-quinolyl)](2-phenylethyl)amine]: the IC50 fell in the range of 0.801 to 5 µM.

In the case of `COc1ccc(-c2cc(NCCc3ccc(Cl)cc3)c3ccccc3n2)cc1` [Compound G84, [2-(4-chlorophenyl)ethyl][2-(4-methoxyphenyl)(4-quinolyl)]amine], the IC50 was 0.801 to 5 µM.

`COc1ccc(CCNc2cc(-c3ccc(OC)cc3)nc3ccccc23)cc1` [Compound G85, [2-(4-methoxyphenyl)(4-quinolyl)][2-(4-methoxyphenyl)ethyl]amine]: the IC50 lay in the range of 0.801 to 5 µM.

For the molecule `COc1ccc(-c2cc(NCCc3ccc(C(F)(F)F)cc3)c3ccccc3n2)cc1` [Compound G86, [2-(4-methoxyphenyl)(4-quinolyl)]{2-[4-(trifluoromethyl)phenyl]ethyl}amine], the IC50 fell in the range of 0.801 to 5 µM.

In the case of `COc1ccc(-c2cc(NCCc3ccc(F)cc3)c3ccccc3n2)cc1` [Compound G87, [2-(4-fluorophenyl)ethyl][2-(4-methoxyphenyl)(4-quinolyl)]amine], the IC50 lay in the range of 0.801 to 5 µM.

Consider `CCN(CC)C(=O)c1ccc(-c2cc(NCCCN3CCCCC3)c3ccccc3n2)cc1` [Compound I1, N,N-diethyl-4-(4-((3-(piperidin-1-yl)propyl)amino)quinolin-2-yl)benzamide], for which the IC50 was in the range of 0.2 to 0.8 µM.

Take `c1ccc2c(NCCCN3CCCCC3)cc(-c3ccc(OC4CCCCO4)cc3)nc2c1` (stereo not shown) [Compound I1I3, [2-(4-(2H-3,4,5,6-tetrahydropyran-2-yloxy)phenyl)(4-quinolyl)](3-piperidylpropyl)amine]: the IC50 lay within 0.801 to 5 µM.

For `N#Cc1ccccc1-c1cc(Nc2cccc(CN3CCCC3)c2)c2ccccc2n1` [Compound I2, 2-(4-{[3-(pyrrolidinylmethyl)phenyl]amino}-2-quinolyl)benzenecarbonitrile], the IC50 is 0.801 to 5 µM.

In the case of `NC(=O)c1ccc(-c2cc(Nc3cccc(CC4CCNCC4)c3)c3ccccc3n2)cc1` [Compound I3, 4-(4-{[3-(4-piperidylmethyl)phenyl]amino}-2-quinolyl)benzamide], the IC50 was 0.801 to 5 µM.

Turning to `CN(C)Cc1cccc(Nc2cc(-c3ccc(C(N)=O)cc3)nc3ccccc23)c1` [Compound I4, 4-[4-({3-[(dimethylamino)methyl]phenyl}amino)-2-quinolyl]benzamide], the IC50 is above 5 µM.

Regarding `NC(=O)c1ccc(-c2cc(Nc3cccc(CN4CCCC4)c3)c3ccccc3n2)cc1` [Compound I5, 4-(4-{[3-(pyrrolidinylmethyl)phenyl]amino}-2-quinolyl)benzamide], the IC50 is above 5 µM.

With `NC(=O)c1ccc(-c2cc(Nc3ccc(CN4CCCCC4)cc3)c3ccccc3n2)cc1` [Compound I6, 4-(4-{[4-(piperidylmethyl)phenyl]amino}-2-quinolyl)benzamide], the IC50 was above 5 µM.

For `Fc1cc(Cl)ccc1-c1cc(Nc2cccc(CC3CCNCC3)c2)c2ccccc2n1` [Compound I7, [2-(4-chloro-2-fluorophenyl)(4-quinolyl)][3-(4-piperidylmethyl)phenyl]amine], the IC50 was 0.801 to 5 µM.

Take `Fc1cc(Cl)ccc1-c1cc(Nc2ccc(CN3CCCCC3)cc2)c2ccccc2n1` [Compound I8, [2-(4-chloro-2-fluorophenyl)(4-quinolyl)][4-(piperidylmethyl)phenyl]amine]: the IC50 is 0.801 to 5 µM.

Regarding `Fc1cc(Cl)ccc1-c1cc(Nc2cccc(CN3CCCC3)c2)c2ccccc2n1` [Compound I10], the IC50 is 0.801 to 5 µM.

As for `Clc1cccc(-c2cc(Nc3ccc(CN4CCCCC4)cc3)c3ccccc3n2)c1` [Compound I11, [2-(3-chlorophenyl)(4-quinolyl)][4-(piperidylmethyl)phenyl]amine], the IC50 is 0.801 to 5 µM.

For `Clc1cccc(-c2cc(Nc3cccc(CN4CCCC4)c3)c3ccccc3n2)c1` [Compound I12, [2-(3-chlorophenyl)(4-quinolyl)][3-(pyrrolidinylmethyl)phenyl]amine], the IC50 fell in the range of 0.801 to 5 µM.

`CN(C)Cc1cc(CO)cc(Nc2cc(-c3cccc(Cl)c3)nc3ccccc23)c1` [Compound I13, (5-[(dimethylamino)methyl]-3-{[2-(3-chlorophenyl)(4-quinolyl)]amino}phenyl)methan-1-ol]: the IC50 lay in the range of 0.801 to 5 µM.

For `CN(C)c1cccc(Nc2cc(-c3cccc(Cl)c3)nc3ccccc23)c1` [Compound I14, (3-{[2-(3-chlorophenyl)(4-quinolyl)]amino}phenyl)dimethylamine], the IC50 fell in the range of 0.801 to 5 µM.

As for `CN1CCCC1CCNc1cc(-c2cccc(Cl)c2)nc2ccccc12` (stereo not shown) [Compound I15, [2-(3-chlorophenyl)(4-quinolyl)][2-(1-methylpyrrolidin-2-yl)ethyl]amine], the IC50 is 0.801 to 5 µM.

Regarding `CN(C)Cc1ccc(Nc2cc(-c3cccc(Cl)c3)nc3ccccc23)cc1` [Compound I16, [(4-{[2-(3-chlorophenyl)(4-quinolyl)]amino}phenyl)methyl]dimethylamine], the IC50 is 0.801 to 5 µM.

On to `Clc1cccc(-c2cc(Nc3cccc(CC4CCN(Cc5ccccc5)CC4)c3)c3ccccc3n2)c1` [Compound I17, [2-(3-chlorophenyl)(4-quinolyl)](3-{[1-benzyl(4-piperidyl)]methyl}phenyl)amine], for which the IC50 lay in the range of 0.801 to 5 µM.

Consider `CN1CCC(Cc2cccc(Nc3cc(-c4cccc(Cl)c4)nc4ccccc34)c2)CC1` [Compound I18, [2-(3-chlorophenyl)(4-quinolyl)]{3-[(1-methyl(4-piperidyl))methyl]phenyl}amine], for which the IC50 was in the range of 0.801 to 5 µM.

As for `Clc1cccc(-c2cc(Nc3cccc(CC4CCNCC4)c3)c3ccccc3n2)c1` [Compound I19, [2-(3-chlorophenyl)(4-quinolyl)][3-(4-piperidylmethyl)phenyl]amine], the IC50 was 0.801 to 5 µM.
